According to publication PMC9299836 (eLife, 2022):
pEC50: −log10 of the molar value. Values joined by “and” are separate entries in the source; they are usually repeats but may differ in a detail not shown here. Equal values may be shown once. Read-outs that look alike come from different tables or passages of the source.

Key:
mGluR2 [1] = target: T1, mGluR2 (Mus musculus, UniProt Q14BI2); assay: Live-cell FRET, SNAP-m2 (VFT domain) inter-subunit sensor in HEK293T cells; conditions: for Normalized FRET response, Mean (SNAP-m2 agonist DRC): maximal responses normalized to 1mM glutamate;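 on all read-outs here: apparent FRET efficiency from whole-membrane ROIs of single cells, corrected for donor bleed-through and background, ΔFRET as treatment minus pretreatment signal, recorded at room temperature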
T1 sequence (Q14BI2 19-872): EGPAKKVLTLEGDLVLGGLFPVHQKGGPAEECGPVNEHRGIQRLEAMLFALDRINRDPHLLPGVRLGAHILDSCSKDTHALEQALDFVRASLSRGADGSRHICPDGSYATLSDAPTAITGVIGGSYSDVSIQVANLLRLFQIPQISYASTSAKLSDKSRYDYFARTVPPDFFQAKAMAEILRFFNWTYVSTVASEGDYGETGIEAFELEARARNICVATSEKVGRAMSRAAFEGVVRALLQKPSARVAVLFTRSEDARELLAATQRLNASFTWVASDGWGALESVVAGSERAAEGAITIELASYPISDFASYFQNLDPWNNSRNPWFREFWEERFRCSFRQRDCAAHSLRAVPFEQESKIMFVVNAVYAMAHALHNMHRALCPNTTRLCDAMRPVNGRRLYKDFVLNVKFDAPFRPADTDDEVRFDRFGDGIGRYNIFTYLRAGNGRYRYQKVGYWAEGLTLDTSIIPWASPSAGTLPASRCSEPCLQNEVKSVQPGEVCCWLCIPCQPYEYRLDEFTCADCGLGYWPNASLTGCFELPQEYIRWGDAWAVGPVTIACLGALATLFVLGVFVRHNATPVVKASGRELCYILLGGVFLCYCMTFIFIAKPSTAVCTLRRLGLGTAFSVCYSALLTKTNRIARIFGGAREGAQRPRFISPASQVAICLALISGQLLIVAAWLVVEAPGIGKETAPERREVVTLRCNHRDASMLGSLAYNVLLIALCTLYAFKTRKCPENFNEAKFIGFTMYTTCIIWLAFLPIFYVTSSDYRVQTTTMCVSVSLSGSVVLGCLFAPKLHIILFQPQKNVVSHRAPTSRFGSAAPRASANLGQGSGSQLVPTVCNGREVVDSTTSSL

mGluR2 [2] = target: T1, mGluR2; assay: Functional calcium imaging, SNAP-mGluR2 (no FLAG-tag) with chimeric G protein Gqo5 in HEK293T cells; assay type: cell-based; design: Full length mGluR2 construct with an amber codon (TAG) mutation of amino acid A548 (azi-CRD) or N-terminal SNAP-tag (SNAP-mGluR2); host or cells: HEK293T; conditions: for Intracellular Ca2+ response, Mean / Intracellular Ca2+ response: normalized to 1mM glutamate; for Intracellular Ca2+ response: single experiments
mGluR2 [3] = target: mGluR2 (Mus musculus, UniProt Q14BI2, A548F); assay: Live-cell FRET, azi-CRD (cysteine-rich domain) sensor in HEK293T cells; conditions: for Normalized FRET response, Mean (azi-CRD agonist DRC): maximal responses normalized to 1mM glutamate
Sequence of mGluR2 (Mus musculus, UniProt Q14BI2, A548F) (Q14BI2 19-872 A548F): as the sequence (Q14BI2 19-872) above, with A530F counted along it

mGluR2 [4] = target: mGluR2 (Mus musculus, UniProt Q14BI2, INS715F); assay: Live-cell FRET, azi-ECL2 (7TM domain, extracellular loop 2) sensor in HEK293T cells;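 further: Cy3/Cy5 click-labeled sensor, whole-membrane ROIs per cell, apparent FRET after bleed-through correction, ΔFRET as treatment minus pre-treatment signal, at room temperature, at least three biological replicates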
Sequence of mGluR2 (Mus musculus, UniProt Q14BI2, INS715F) (Q14BI2 with tags, fused parts or gaps INS715F): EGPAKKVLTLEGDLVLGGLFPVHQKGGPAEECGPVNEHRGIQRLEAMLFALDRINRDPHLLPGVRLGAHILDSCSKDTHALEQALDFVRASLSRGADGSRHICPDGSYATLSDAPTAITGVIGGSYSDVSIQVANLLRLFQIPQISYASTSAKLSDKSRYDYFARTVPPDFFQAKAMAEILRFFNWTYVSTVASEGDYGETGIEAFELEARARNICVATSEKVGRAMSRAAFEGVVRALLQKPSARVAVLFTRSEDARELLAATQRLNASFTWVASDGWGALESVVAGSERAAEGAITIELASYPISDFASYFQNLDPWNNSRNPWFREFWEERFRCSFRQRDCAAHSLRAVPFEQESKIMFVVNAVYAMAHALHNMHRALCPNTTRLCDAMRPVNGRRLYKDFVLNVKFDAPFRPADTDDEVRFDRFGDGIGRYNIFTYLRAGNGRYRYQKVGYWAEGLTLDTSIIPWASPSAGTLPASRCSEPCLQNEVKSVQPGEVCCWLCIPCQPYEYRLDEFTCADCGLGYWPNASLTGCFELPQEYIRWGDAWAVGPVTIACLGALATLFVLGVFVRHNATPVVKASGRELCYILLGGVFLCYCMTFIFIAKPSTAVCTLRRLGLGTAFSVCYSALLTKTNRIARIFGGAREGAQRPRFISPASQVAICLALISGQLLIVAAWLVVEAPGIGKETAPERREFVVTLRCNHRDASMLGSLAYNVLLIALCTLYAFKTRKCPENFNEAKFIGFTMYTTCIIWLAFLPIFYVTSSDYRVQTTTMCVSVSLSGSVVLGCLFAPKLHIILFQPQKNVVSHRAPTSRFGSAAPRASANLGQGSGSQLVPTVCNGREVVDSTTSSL

Mean max response (normalized max ΔFRET) (mGluR2 [1]; SNAP-m2 (VFT), agonist alone (1 mM glutamate, 100 μM DCG-IV, 20 μM LY379268, 100 μM APDC), normalized to 1 mM glutamate): 0.79
Normalized Max ΔFRET, Mean (mGluR2 [1]; SNAP-m2, 100μM agonist, mean of cells, normalized to 1mM glutamate): 78.7384
Hill slope (mGluR2 [1]; SNAP-m2 sensor, orthosteric agonist alone): –1.26
efficacy relative to glutamate efficacy (mGluR2 [1]; VFT domain FRET sensor): 79%
Normalized FRET response, Mean (SNAP-m2 agonist DRC) (mGluR2 [1]; log[ligand] (M) -4): -0.7874
Normalized FRET response, Mean (SNAP-m2 agonist DRC) (mGluR2 [1]; log[ligand] (M) -4.52288): -0.8342
Normalized FRET response, Mean (SNAP-m2 agonist DRC) (mGluR2 [1]; log[ligand] (M) -5): -0.8388
Normalized FRET response, Mean (SNAP-m2 agonist DRC) (mGluR2 [1]; log[ligand] (M) -5.39794): -0.8023
Normalized FRET response, Mean (SNAP-m2 agonist DRC) (mGluR2 [1]; log[ligand] (M) -5.82391): -0.7016
Normalized FRET response, Mean (SNAP-m2 agonist DRC) (mGluR2 [1]; log[ligand] (M) -6.09691): -0.5309
Normalized FRET response, Mean (SNAP-m2 agonist DRC) (mGluR2 [1]; log[ligand] (M) -6.52288): -0.3457
Normalized FRET response, Mean (SNAP-m2 agonist DRC) (mGluR2 [1]; log[ligand] (M) -7): -0.1181
Normalized FRET response, Mean (SNAP-m2 agonist DRC) (mGluR2 [1]; log[ligand] (M) -7.30103): -0.04846
Normalized FRET response, Mean (SNAP-m2 agonist DRC) (mGluR2 [1]; log[ligand] (M) -7.69897): 0
pEC50 (mGluR2 [1]; read-out: Live-cell FRET titration EC50, SNAP-m2, agonist alone, individual experiments): 6.22 and 6.20 and 6.55 and 6.50 and 6.53 and 6.49
pEC50 (mGluR2 [1]; read-out: Mean half-maximum effective concentration (EC50), SNAP-m2 sensor, orthosteric agonist alone): 6.40
Normalized Max Intracellular Ca2+ Response, individual experiments (mGluR2 [2]; 100 μM DCG-IV, 10 μM LY379268, 300 μM APDC, normalized to 1 mM glutamate, single replicate): 0.684 and 0.6918 and 0.7087
Normalized Max Intracellular Ca2+ Response, mean (mGluR2 [2]; 1 mM Glu, 100 μM DCG-IV, 10 μM LY379268, 300 μM APDC, normalized to 1 mM glutamate): 0.6948
efficacy relative to glutamate efficacy (mGluR2 [2]; functional calcium imaging assay): 69%
Intracellular Ca2+ response, Mean (mGluR2 [2]; log[agonist] (M) -4): 0.6948
Intracellular Ca2+ response (mGluR2 [2]; log[agonist] (M) -4): 0.6948
Intracellular Ca2+ response, Mean (mGluR2 [2]; log[agonist] (M) -4.52288): 0.7042
Intracellular Ca2+ response (mGluR2 [2]; log[agonist] (M) -4.52288): 0.7332 and 0.6724 and 0.7069
Intracellular Ca2+ response, Mean (mGluR2 [2]; log[agonist] (M) -5): 0.632
Intracellular Ca2+ response (mGluR2 [2]; log[agonist] (M) -5): 0.631 and 0.6318 and 0.6332
Intracellular Ca2+ response, Mean (mGluR2 [2]; log[agonist] (M) -5.39794): 0.5754
Intracellular Ca2+ response (mGluR2 [2]; log[agonist] (M) -5.39794): 0.5417 and 0.5882 and 0.5962
Intracellular Ca2+ response, Mean (mGluR2 [2]; log[agonist] (M) -5.82391): 0.3655
Intracellular Ca2+ response (mGluR2 [2]; log[agonist] (M) -5.82391): 0.2777 and 0.362 and 0.4567
Intracellular Ca2+ response, Mean (mGluR2 [2]; log[agonist] (M) -6): 0.3093
Intracellular Ca2+ response (mGluR2 [2]; log[agonist] (M) -6): 0.2196 and 0.3072 and 0.4011
Intracellular Ca2+ response, Mean (mGluR2 [2]; log[agonist] (M) -6.52288): 0.06286
Intracellular Ca2+ response, Mean (mGluR2 [2]; log[agonist] (M) -7): 0
Intracellular Ca2+ response (mGluR2 [2]; log[agonist] (M) -7): 0
Intracellular Ca2+ response, Mean (mGluR2 [2]; log[agonist] (M) -8): 0
Intracellular Ca2+ response (mGluR2 [2]; log[agonist] (M) -8): 0
efficacy relative to glutamate efficacy (mGluR2 [3]; CRD sensor): 69%
Hill slope (mGluR2 [3]; azi-CRD sensor, orthosteric agonist alone): 0.94
Mean max response (normalized max ΔFRET) (mGluR2 [3]; azi-CRD, agonist alone (1 mM glutamate, 100 μM DCG-IV, 20 μM LY379268, 100 μM APDC), normalized to 1 mM glutamate): 0.69
Normalized Max ΔFRET, Mean (mGluR2 [3]; azi-CRD, 100μM agonist, mean of cells, normalized to 1mM glutamate): 69.3017
Normalized FRET response, Mean (azi-CRD agonist DRC) (mGluR2 [3]; log[ligand] (M) -4): 0.693
Normalized FRET response, Mean (azi-CRD agonist DRC) (mGluR2 [3]; log[ligand] (M) -4.1549): 0.638
Normalized FRET response, Mean (azi-CRD agonist DRC) (mGluR2 [3]; log[ligand] (M) -4.52288): 0.594
Normalized FRET response, Mean (azi-CRD agonist DRC) (mGluR2 [3]; log[ligand] (M) -5): 0.6438
Normalized FRET response, Mean (azi-CRD agonist DRC) (mGluR2 [3]; log[ligand] (M) -5.39794): 0.5492
Normalized FRET response, Mean (azi-CRD agonist DRC) (mGluR2 [3]; log[ligand] (M) -5.82391): 0.4312
Normalized FRET response, Mean (azi-CRD agonist DRC) (mGluR2 [3]; log[ligand] (M) -6): 0.3274
Normalized FRET response, Mean (azi-CRD agonist DRC) (mGluR2 [3]; log[ligand] (M) -6.52288): 0.164
Normalized FRET response, Mean (azi-CRD agonist DRC) (mGluR2 [3]; log[ligand] (M) -7): 0.06087
Normalized FRET response, Mean (azi-CRD agonist DRC) (mGluR2 [3]; log[ligand] (M) -8): 0
pEC50 (mGluR2 [3]; read-out: Live-cell FRET titration EC50, azi-CRD, agonist alone, individual experiments): 5.82 and 5.83 and 6.11 and 6.24 and 6.28 and 6.05 and 5.87 and 5.80 and 5.68
pEC50 (mGluR2 [3]; read-out: Mean half-maximum effective concentration (EC50), azi-CRD sensor, orthosteric agonist alone): 5.96
efficacy relative to glutamate efficacy (mGluR2 [4]; ECL2 sensor): 64%
Mean max response (normalized max ΔFRET) (mGluR2 [4]; azi-ECL2, agonist alone (1 mM glutamate, 100 μM DCG-IV, 20 μM LY379268, 100 μM APDC), normalized to 1 mM glutamate): 0.64
Normalized ΔFRET response, Mean (agonist DRC) (mGluR2 [4]; azi-ECL2, log[agonist] (M) -4, normalized to 1 mM glutamate): 0.6388
Normalized ΔFRET response, Mean (agonist DRC) (mGluR2 [4]; azi-ECL2, log[agonist] (M) -4.52288, normalized to 1 mM glutamate): 0.6117
Normalized ΔFRET response, Mean (agonist DRC) (mGluR2 [4]; azi-ECL2, log[agonist] (M) -5, normalized to 1 mM glutamate): 0.5883
Normalized ΔFRET response, Mean (agonist DRC) (mGluR2 [4]; azi-ECL2, log[agonist] (M) -5.39794, normalized to 1 mM glutamate): 0.5288
Normalized ΔFRET response, Mean (agonist DRC) (mGluR2 [4]; azi-ECL2, log[agonist] (M) -5.82391, normalized to 1 mM glutamate): 0.4325
Normalized ΔFRET response, Mean (agonist DRC) (mGluR2 [4]; azi-ECL2, log[agonist] (M) -6.09691, normalized to 1 mM glutamate): 0.3472
Normalized ΔFRET response, Mean (agonist DRC) (mGluR2 [4]; azi-ECL2, log[agonist] (M) -6.52288, normalized to 1 mM glutamate): 0.1978
Normalized ΔFRET response, Mean (agonist DRC) (mGluR2 [4]; azi-ECL2, log[agonist] (M) -7, normalized to 1 mM glutamate): 0.04555
Normalized ΔFRET response, Mean (agonist DRC) (mGluR2 [4]; azi-ECL2, log[agonist] (M) -7.30103, normalized to 1 mM glutamate): 0.01237
Normalized ΔFRET response, Mean (agonist DRC) (mGluR2 [4]; azi-ECL2, log[agonist] (M) -7.69897, normalized to 1 mM glutamate): 0
Normalized Max ΔFRET, Mean (mGluR2 [4]; azi-ECL2, 100μM agonist, mean of cells, normalized to 1mM glutamate): 63.8832
Hill slope (mGluR2 [4]; azi-ECL2 sensor, orthosteric agonist alone): 1.05
pEC50 (mGluR2 [4]; read-out: EC50, live-cell FRET titration, azi-ECL2 sensor, DCG-IV, individual cell values (N=24)): 6.39 and 5.80 and 5.68 and 5.69 and 5.78 and 5.82 and 5.73 and 5.93 and 6.25 and 6.49 and 6.40 and 6.55 and 6.35 and 6.44 and 6.20 and 6.52 and 6.34 and 6.38 and 6.41
pEC50 (mGluR2 [4]; read-out: Mean half-maximum effective concentration (EC50), azi-ECL2 sensor, orthosteric agonist alone): 6.05
Compound: N[C@H](C(=O)O)C1[C@@H](C(=O)O)[C@@H]1C(=O)O (some centres unmarked) [DCG-IV]
Normalized Max ΔFRET (mGluR2 [1]; SNAP-m2, 100μM agonist, individual cells, normalized to 1mM glutamate): 84.7663 and 70.8926 and 74.3888 and 73.8095 and 75.8105 and 75.3951 and 75.9881 and 74.211 and 74.4971 and 73.9262 and 75.3591 and 85.075 and 75.8448 and 76.6206 and 81.7136 and 78.0427 and 77.2768 and 74.1653 and 84.8254 and 80.7786 and 86.2145 and 83.3004 and 84.7137 and 86.1165 and 84.7264
Live-cell FRET max response normalized to 1mM glutamate (mGluR2 [1]; SNAP-m2 sensor, DCG-IV, individual values (N=25)): 0.8621 and 0.833 and 0.8471 and 0.8612 and 0.8473 and 0.7089 and 0.7439 and 0.7381 and 0.7581 and 0.754 and 0.7599 and 0.7421 and 0.745 and 0.7393 and 0.7536 and 0.7584 and 0.7662 and 0.8171 and 0.7804 and 0.7728 and 0.7417 and 0.8477 and 0.8508 and 0.8482 and 0.8078
Live-cell FRET max response normalized to 1mM glutamate (mGluR2 [3]; azi-CRD sensor, DCG-IV, individual values (N=19)): 0.7559 and 0.727 and 0.7189 and 0.7035 and 0.632 and 0.6169 and 0.7378 and 0.6793 and 0.6073 and 0.6642 and 0.7117 and 0.7276 and 0.6566 and 0.7993 and 0.7099 and 0.6625 and 0.714 and 0.6368 and 0.7062
Normalized Max ΔFRET (mGluR2 [3]; azi-CRD, 100μM agonist, individual cells, normalized to 1mM glutamate): 66.2522 and 61.6858 and 73.7778 and 67.9245 and 60.7306 and 66.4234 and 71.1688 and 72.7619 and 65.6646 and 79.932 and 70.9877 and 71.4032 and 63.6793 and 70.615 and 75.5857 and 72.6994 and 71.8894 and 70.347 and 63.2035
Normalized Max ΔFRET (mGluR2 [4]; azi-ECL2, 100μM agonist, individual cells, normalized to 1mM glutamate): 75.6239 and 62.1009 and 89.9691 and 84.6273 and 55.3373 and 55.3387 and 55.3355 and 62.696 and 49.3687 and 57.2855 and 56.6756 and 63.6013 and 56.6982 and 53.3737 and 53.7969 and 61.9848 and 59.9837 and 58.1516 and 63.6225 and 66.6797 and 61.402 and 83.697 and 67.4032 and 68.3214 and 74.0066
Live-cell FRET max response normalized to 1mM glutamate (mGluR2 [4]; azi-ECL2 sensor, DCG-IV, individual values (N=25)): 0.614 and 0.837 and 0.674 and 0.6832 and 0.7401 and 0.621 and 0.8997 and 0.8463 and 0.5534 (3×) and 0.627 and 0.4937 and 0.5728 and 0.5668 and 0.567 and 0.5337 and 0.538 and 0.6199 and 0.5998 and 0.5815 and 0.7562 and 0.636 and 0.6362 and 0.6668
